Assay results reported in patent US6525059B1, “Substituted pyrazoles as p38 kinase inhibitors” (G. D. Searle & Company, priority 1998, dated 2003).
Read-outs that look alike come from different tables or passages of the source.

Columns and labels:
[1] = tested on: TNF-α; test: LPS stimulation of TNF production by U937 cells; type: cell-based, human; conditions: Homo sapiens; for inhibition at 1 µM: U-937, @ 1.0 uM, read-out: U937 Cell % inhib @ conc.
Procedure: Fifty million cells in 100 ml media were induced to terminal monocytic differentiation by 24 hour incubation with 20 ng/ml phorbol 12-myristate 13-acetate (Sigma). The cells were washed by centrifugation (200×g for 5 min) and resuspended in 100 ml fresh medium. After 24-48 hours, the cells were harvested, centrifuged, and resuspended in culture medium at 2 million cells/ml.
Compounds were prepared as 10 mM stock solutions in DMSO and diluted in culture medium to yield a final DMSO concentration of 0.1% in the cell assay. LPS (E coli, 100 ng/ml final concentration) was then added at a volume of 0.02 ml. After 4 hour incubation at 37° C., the amount of TNF-α released in the culture medium was quantitated by ELISA. Inhibitory potency is expressed as IC50 (μM).
In vitro whole cell assay for measuring the ability of the compounds to inhibit TNF production in human U937 cells stimulated with LPS are shown in the column identified as: […]

[2] = target: T1, human p38 kinase alpha (Homo sapiens, UniProt Q16539); test: p38 kinase in vitro assay, phosphorylation of biotinylated PHAS-I with gamma 32P-ATP; type: biochemical; conditions: for inhibition at 1 µM / inhibition at 10 µM: read-out: P38 alpha kinase % inhib @ conc.
T1 construct: The coding region of the human p38a cDNA was obtained by PCR-amplification from RNA isolated from the human monocyte cell line THP.1; GST (N); made in house; host or cells: E. coli DH10B
Method in brief: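 MKK6-activated human p38α phosphorylates biotinylated PHAS-I with γ-32P-ATP in 25 mM HEPES pH 7.5, 10 mM Mg acetate, 50 μM unlabeled ATP, 1% DMSO, 30 °C for 1 h or overnight. Compounds at 100–0.001 μM (10-fold steps, triplicate); substrate captured on streptavidin filter plates and counted by scintillation.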

[3] = read-out: P38 alpha kinase IC50
[4] = U-937, TNF production, LPS-stimulated human U937 cells, read-out: U937 Cell IC50
[5] = U-937, LPS-stimulated U937 cells, read-out: U937 IC50
[6] = p38α in vitro, PHAS-I assay procedure, read-out: p38^1 IC50

T1 sequence (Q16539 whole entry): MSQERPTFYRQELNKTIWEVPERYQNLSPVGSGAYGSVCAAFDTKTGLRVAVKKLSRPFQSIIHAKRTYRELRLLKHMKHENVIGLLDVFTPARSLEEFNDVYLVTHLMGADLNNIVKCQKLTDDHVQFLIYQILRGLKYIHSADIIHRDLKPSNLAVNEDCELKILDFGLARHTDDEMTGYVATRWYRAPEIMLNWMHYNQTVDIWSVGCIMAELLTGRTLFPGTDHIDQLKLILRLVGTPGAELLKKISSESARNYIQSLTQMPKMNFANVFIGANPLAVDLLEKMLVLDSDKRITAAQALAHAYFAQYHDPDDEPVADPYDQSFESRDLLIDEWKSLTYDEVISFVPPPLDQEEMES

SMILES: O=C(NCc1[nH]nc(-c2ccc(F)cc2)c1-c1ccncc1)c1cc(C(F)(F)F)ccc1F [Example B-0281]
- inhibition at 1 µM [1]: 24%
- IC50 [2, 3]: 7370 nM

SMILES: Cc1ccccc1C(=O)N[C@H](C)c1[nH]nc(-c2ccc(F)cc2)c1-c1ccncc1 [Example B-0492]
- inhibition at 1 µM [1]: 42%
- IC50 [2, 3]: 69 nM

SMILES: O=S(=O)(NCc1[nH]nc(-c2ccc(F)cc2)c1-c1ccncc1)c1cccc2ccccc12 [Example B-0111]
- IC50 [1, 4]: > 1000 nM
- inhibition at 1 µM [2]: 57%

SMILES: Cc1ccc(F)cc1S(=O)(=O)NCc1[nH]nc(-c2ccc(F)cc2)c1-c1ccncc1 [Example B-0232]
- inhibition at 1 µM [1]: 24%
- IC50 [2, 3]: 48 nM

SMILES: COC(=O)NCc1[nH]nc(-c2ccc(F)cc2)c1-c1ccncc1 [Example B-0207]
- inhibition at 1 µM [1]: 52%
- IC50 [2, 3]: 120 nM

SMILES: C[C@@H](NC(=O)c1ccccc1Br)c1[nH]nc(-c2ccc(F)cc2)c1-c1ccncc1 [Example B-0526]
- inhibition at 1 µM [1]: 87%
- IC50 [2, 3]: 31 nM

SMILES: O=C(NCc1[nH]nc(-c2ccc(F)cc2)c1-c1ccncc1)c1cc2ccccc2s1 [Example B-0271]
- inhibition at 1 µM [1]: 12%
- IC50 [2, 3]: 7550 nM

SMILES: COC(=O)CCCC(=O)NCc1[nH]nc(-c2ccc(F)cc2)c1-c1ccncc1 [Example B-0078]
- inhibition at 1 µM [1]: 20%
- inhibition at 1 µM [2]: 80%

SMILES: CC(NS(=O)(=O)CC12CCC(CC1=O)C2(C)C)c1[nH]nc(-c2ccc(F)cc2)c1-c1ccncc1 (stereo not drawn) [Example B-0434]
- inhibition at 1 µM [1]: 65%
- IC50 [2, 3]: 120 nM

SMILES: COC(=O)CCCCCCC(=O)NCc1[nH]nc(-c2ccc(F)cc2)c1-c1ccncc1 [Example B-0088]
- inhibition at 1 µM [1]: 9%
- inhibition at 1 µM [2]: 96%

SMILES: CC(=O)OC(C)(C)C(=O)N[C@H](C)c1[nH]nc(-c2ccc(F)cc2)c1-c1ccncc1 [Example B-0358]
- inhibition at 1 µM [1]: 17%
- IC50 [2, 3]: 370 nM

SMILES: Cc1onc(-c2ccccc2Cl)c1C(=O)NCc1[nH]nc(-c2ccc(F)cc2)c1-c1ccncc1 [Example B-0056]
- inhibition at 1 µM [1]: 21%
- inhibition at 1 µM [2]: 96%

SMILES: C[C@@H](NC(=O)c1cccc(C(F)(F)F)c1)c1[nH]nc(-c2ccc(F)cc2)c1-c1ccncc1 [Example B-0495]
- inhibition at 1 µM [1]: 25%
- IC50 [2, 3]: 120 nM

SMILES: Cc1ccc(C(=O)NCc2[nH]nc(-c3ccc(F)cc3)c2-c2ccncc2)cc1 [Example B-0269]
- inhibition at 1 µM [1]: 19%
- IC50 [2, 3]: 9810 nM

SMILES: O=S(=O)(/C=C\c1ccccc1)NCc1[nH]nc(-c2ccc(F)cc2)c1-c1ccncc1 [Example B-0119]
- IC50 [1, 4]: 2780 nM
- inhibition at 10 µM [2]: 89%

SMILES: CC(=O)Nc1nc(C)c(S(=O)(=O)NCc2[nH]nc(-c3ccc(F)cc3)c2-c2ccncc2)s1 [Example B-0222]
- inhibition at 1 µM [1]: 29%
- IC50 [2, 3]: 400 nM

SMILES: CCc1ccccc1NC(=O)NCc1[nH]nc(-c2ccc(F)cc2)c1-c1ccncc1 [Example B-0169]
- inhibition at 1 µM [1]: 21%
- inhibition at 1 µM [2]: 43%

SMILES: CCOC(=O)CCCC(=O)NCc1[nH]nc(-c2ccc(F)cc2)c1-c1ccncc1 [Example B-0096]
- inhibition at 1 µM [1]: 22%
- inhibition at 1 µM [2]: 91%

SMILES: Cc1cc(C)c(NC(=O)NCc2[nH]nc(-c3ccc(F)cc3)c2-c2ccncc2)c(C)c1 [Example B-0186]
- inhibition at 1 µM [1]: 25%
- inhibition at 1 µM [2]: 40%

SMILES: CCN(CC)CCn1cc(-c2ccnc(NCc3ccc(F)cc3)c2)c(-c2ccc(F)cc2)n1 [Example A-279, 4-[1-[2-(diethylamino)ethyl]-3-(4-fluorophenyl)-1H-pyrazol-4-yl]-N-[(4-fluorophenyl)methyl]-2-pyridinamine]
- IC50 [1, 5]: 700 nM
- IC50 [2, 6]: 5 nM

SMILES: Fc1ccc(-c2n[nH]c(NCCCN3CCOCC3)c2-c2ccncc2)cc1 [Example A-286, N-[5-(4-fluorophenyl)-4-(4-pyridinyl)-1H-pyrazol-3-yl]-4-morpholinepropanamine]
- IC50 [1, 5]: 90 nM
- IC50 [2, 6]: 57 nM

SMILES: C[C@@H](NC(=O)c1ccc(Cl)cc1)c1[nH]nc(-c2ccc(F)cc2)c1-c1ccncc1 [Example B-0493]
- inhibition at 1 µM [1]: 36%
- IC50 [2, 3]: 300 nM

SMILES: O=C(NCc1[nH]nc(-c2ccc(F)cc2)c1-c1ccncc1)Nc1ccccc1 [Example B-0175]
- inhibition at 1 µM [1]: 31%
- inhibition at 10 µM [2]: 41%

SMILES: Cc1ccc(S(=O)(=O)NCc2[nH]nc(-c3ccc(F)cc3)c2-c2ccncc2)cc1 [Example B-0118]
- IC50 [1, 4]: 1290 nM
- IC50 [2, 3]: 1180 nM

SMILES: C[C@@H](NC(=O)C(C)(C)C)c1[nH]nc(-c2ccc(F)cc2)c1-c1ccncc1 [Example B-0424]
- inhibition at 1 µM [1]: 32%
- IC50 [2, 3]: 83 nM

SMILES: Cc1c(C)c(S(=O)(=O)N[C@H](C)c2[nH]nc(-c3ccc(F)cc3)c2-c2ccncc2)c(C)c2c1OC(C)(C)CC2 [Example B-0482]
- inhibition at 1 µM [1]: 68%
- IC50 [2, 3]: 970 nM

SMILES: O=S(=O)(NCc1[nH]nc(-c2ccc(F)cc2)c1-c1ccncc1)c1ccc(-c2ccccn2)s1 [Example B-0258]
- inhibition at 1 µM [1]: 63%
- IC50 [2, 3]: 370 nM

SMILES: O=C(NCc1[nH]nc(-c2ccc(F)cc2)c1-c1ccncc1)c1ccccc1Cl [Example B-0289]
- inhibition at 1 µM [1]: 55%
- IC50 [2, 3]: 150 nM

SMILES: O=C(NCc1[nH]nc(-c2ccc(F)cc2)c1-c1ccncc1)c1cc(F)cc(F)c1 [Example B-0277]
- inhibition at 1 µM [1]: 34%
- IC50 [2, 3]: 680 nM

SMILES: N#Cc1cccc(C(=O)NCc2[nH]nc(-c3ccc(F)cc3)c2-c2ccncc2)c1 [Example B-0274]
- inhibition at 1 µM [1]: 25%
- IC50 [2, 3]: 2680 nM

SMILES: C[C@@H](NS(=O)(=O)c1ccccc1C#N)c1[nH]nc(-c2ccc(F)cc2)c1-c1ccncc1 [Example B-0450]
- inhibition at 1 µM [1]: 81%
- IC50 [2, 3]: 260 nM

SMILES: O=C(NCc1[nH]nc(-c2ccc(F)cc2)c1-c1ccncc1)[C@H]1CCCN1 [Example B-0196]
- IC50 [1, 4]: > 1000 nM
- IC50 [2, 3]: 2240 nM

SMILES: O=[N+]([O-])c1cccc(S(=O)(=O)NCc2[nH]nc(-c3ccc(F)cc3)c2-c2ccncc2)c1 [Example B-0114]
- IC50 [1, 4]: 3920 nM
- inhibition at 1 µM [2]: 45%

SMILES: C[C@@H](NC(=O)c1ccccc1Cl)c1[nH]nc(-c2ccc(F)cc2)c1-c1ccncc1 [Example B-0514]
- inhibition at 1 µM [1]: 87%
- IC50 [2, 3]: 140 nM

SMILES: O=S(=O)(NCc1[nH]nc(-c2ccc(F)cc2)c1-c1ccncc1)c1cc(Cl)cc(Cl)c1O [Example B-0103]
- inhibition at 1 µM [1]: 6%
- inhibition at 1 µM [2]: 71%

SMILES: CCCOC(=O)N[C@H](C)c1[nH]nc(-c2ccc(F)cc2)c1-c1ccncc1 [Example B-0425]
- inhibition at 1 µM [1]: 54%
- IC50 [2, 3]: 260 nM

SMILES: O=C(NCc1[nH]nc(-c2ccc(F)cc2)c1-c1ccncc1)Nc1ccccc1-c1ccccc1 [Example B-0181]
- inhibition at 1 µM [1]: 2%
- inhibition at 1 µM [2]: 5%

SMILES: Fc1ccc(-c2n[nH]cc2-c2ccnc3ccccc23)cc1 [Example A-291]
- IC50 [1, 5]: 1130 nM
- IC50 [2, 6]: 388 nM

SMILES: CCCCCCCC(=O)NCc1[nH]nc(-c2ccc(F)cc2)c1-c1ccncc1 [Example B-0064]
- inhibition at 1 µM [1]: 4%
- inhibition at 1 µM [2]: 90%

SMILES: Clc1ccc(-c2n[nH]cc2-c2ccncc2)cc1Cl [Example A-297, 4-[3-(3,4-dichlorophenyl)-1H-pyrazol-4-yl]pyridine]
- IC50 [1, 5]: 170 nM
- IC50 [2, 6]: 520 nM

SMILES: O=S(=O)(NCc1[nH]nc(-c2ccc(F)cc2)c1-c1ccncc1)c1ccc(F)cc1F [Example B-0134]
- IC50 [1, 4]: 2170 nM
- inhibition at 1 µM [2]: 60%

SMILES: O=C(NCc1[nH]nc(-c2ccc(F)cc2)c1-c1ccncc1)c1c(F)cccc1C(F)(F)F [Example B-0284]
- inhibition at 1 µM [1]: 65%
- IC50 [2, 3]: 83 nM
